For seven molecules, T/C and OD results are on record in ChEMBL document CHEMBL1132912, “Cytotoxic alpha-bromoacrylic derivatives of distamycin analogues modified at the amidino moiety” (Bioorg Med Chem Lett, 2000).

What all share (assay type): functional
For test [1], the system named is Mus musculus. As to the kind of experiment: In vivo antileukemic activity was determined in mice infected with L1210 leukemia cell after intravenous of treated versus untreated mice 10).
The subject of test [2] is Mus musculus. The test is described as follows: In vivo antileukemic activity was determined on L1210 leukemia cell in mice (O.D.=optimal (non-toxic) dose <LD10).
Test [3] relates to Mus musculus. As to the kind of experiment: In vivo antileukemic activity was determined in mice infected with L1210 leukemia cell after intravenous administration (T/C=median survival time of treated versus untreated mice 10).

One may read the T/C as the result in the treated group divided by that in the control group, in per cent.

Take `C=C(Br)C(=O)Nc1cc(C(=O)Nc2cc(C(=O)Nc3cc(C(=O)Nc4cc(C(=O)NCCN=C(N)N)n(C)c4)n(C)c3)n(C)c2)n(C)c1.Cl`: in the test on Mus musculus [1], the T/C is given as 196%. The same molecule had an OD in the test with Mus musculus [2] of 1.56 mg/kg.
The matching figures for `C=C(Br)C(=O)Nc1cc(C(=O)Nc2cc(C(=O)Nc3cc(C(=O)Nc4cc(C(=O)NCCC(=N)NC#N)n(C)c4)n(C)c3)n(C)c2)n(C)c1.Cl`: 157% and 3.13 mg/kg.
`C=C(Br)C(=O)Nc1cc(C(=O)Nc2cc(C(=O)Nc3cc(C(=O)Nc4cc(C(=O)NCCC#N)n(C)c4)n(C)c3)n(C)c2)n(C)c1.Cl`: in the test with Mus musculus [3], the T/C came out at 157%. This molecule gave an OD with Mus musculus [2] of 12.5 mg/kg.
In the test with Mus musculus [1], `C=C(Br)C(=O)Nc1cc(C(=O)Nc2cc(C(=O)Nc3cc(C(=O)Nc4cc(C(=O)NCC/C(=N/C)NC)n(C)c4)n(C)c3)n(C)c2)n(C)c1.Cl` returned a T/C of 258%. For the same molecule, the OD in the test on Mus musculus [2] was determined as 1.56 mg/kg.
The like results for `C=C(Br)C(=O)Nc1cc(C(=O)Nc2cc(C(=O)Nc3cc(C(=O)Nc4cc(C(=O)NCCC(=N)NC)n(C)c4)n(C)c3)n(C)c2)n(C)c1.Cl` were, in that order, 150% and 3.13 mg/kg.
The like results for `C=C(Br)C(=O)Nc1cc(C(=O)Nc2cc(C(=O)Nc3cc(C(=O)Nc4cc(C(=O)NCCC(=N)NO)n(C)c4)n(C)c3)n(C)c2)n(C)c1.Cl` were, in that order, 186% and 6.25 mg/kg.
Consider `C=C(Br)C(=O)Nc1cc(C(=O)Nc2cc(C(=O)Nc3cc(C(=O)Nc4cc(C(=O)NCCC(N)=O)n(C)c4)n(C)c3)n(C)c2)n(C)c1.Cl`, for which the T/C in the test on Mus musculus [1] is recorded as 169%. The molecule further had an OD with Mus musculus [2] of 6.25 mg/kg.
